{
  "source": "patent US20050239717A1",
  "about": "“Higher fullerenes useful as radical scavengers” (Nano-C, Inc., priority 2003, published 2005)",
  "assay": "Radical scavenging efficiency test: cigarette smoke bubbled through coarse glass frit into decalin with scavenger, DHR 6G fluorescent probe",
  "details": "150 μM to 300 μM, FIG. 6B",
  "procedure": "Tests were conducted to study the effectiveness of higher fullerenes against radicals present in cigarette smoke (predominantly peroxyl radical). The cigarette smoke was bubbled through a cylindrical, coarse glass frit into a solvent (decalin) in which radical scavengers were dissolved. The smoke then exited this solvent and was passed through a second flask, in which a fluorescent probe that fluoresces upon oxidation by radicals was used (Dihydrorhodamine 6G (DHR 6G), purchased from Molecular Probes). The variation of fluorescent signal corresponds directly to the radical content of the cigarette smoke, and thus a measure of the reduction of radicals by the radical scavenger is measured. Signals were measured every 10 seconds.\nTests were conducted to study the sensitivity of the test apparatus in Example 2 to varying concentrations of Vitamin E as a radical scavenger to scavenge radicals present in cigarette smoke (predominantly peroxyl radical). The cigarette smoke was bubbled through a cylindrical, coarse glass frit into a solvent (decalin) in which radical scavengers were dissolved. […] The variation of fluorescent signal corresponds directly to the radical content of the cigarette smoke, and thus a measure of the reduction of radicals by the radical scavenger is measured. Signals were measured every 10 seconds.",
  "data": [
    {"substance": "Vitamin E", "values": [
      {"measurement": "Change of fluorescence signal on doubling the scavenger concentration", "result": "very small deflection"}
    ]}
  ]
}
